Assay results taken from patent publication US4100117A, “Somatostatin analogs and intermediates thereto” (Eli Lilly and Company, priority 1977, dated 1978).
Where a SMILES comes first, the peptide text is derived from it. Bridges are numbered along the chain shown (N, C = ends). [ ]: non-standard residue; d: D form.

Key:
[1] = system: gastric HCl secretion induced by the C-terminal tetrapeptide of gastrin; test: in vivo inhibition of gastric acid secretion in dogs with chronic fistula and Heidenhain pouch; design: species or system dog
Description: D-Val^1 -somatostatin was tested in dogs for its in vivo inhibition of gastric acid secretion. In six dogs with chronic fistula and Heidenhain pouch, gastric HCl secretion was induced by infusion of the C-terminal tetrapeptide of gastrin at 0.5 μg/kg-hr. Each dog served as its own control, receiving on a separate day only the tetrapeptide. On another day, the six dogs received the tetrapeptide, and, after one hour of steady state secretion of HCl, D-Val^1 -somatostatin was infused at 0.75 μg/kg-hr. for one hour. Collection of gastric acid samples was continued for an additional 1.5 hours at 15 minute intervals. The samples were titrated to pH 7 with an automatic titrator. The maximal inhibitory effect of the D-Val^1 -somatostatin was extrapolated against the dose-response curve of somatostatin, and the relative potency of the analog to that of somatostatin is expressed as percent activity. D-Val^1 -somatostatin inhibited steady state acid secretion induced by the C-terminal tetrapeptide of gastrin by 85.1 ± 6.0% standard error of mean. This effect is equivalent to that of 0.935 μg/kg-hr. of somatostatin. Its activity relative to that of somatostatin thus is 125%.

[2] = system: gut motility (pylorus, duodenum, antrum pressure); test: action on gut motility in conscious dogs (intralumenal pressure); assay type: in vivo, dog; settings: three conscious dogs; intravenous infusion over ten minutes
Description: D-Val^1 -somatostatin also was tested for its action on gut motility in conscious dogs. Three dogs having intralumenal catheters placed in the antrum, duodenum, and pylorus were used. Pressure changes in the gut lumen were recorded on a Visicorder using strain gauges and miniature light beam galvanometers. After a steady state control was established, D-Val^1 -somatostatin was infused intravenously over a ten minute period. […] The minimum effective dose required to increase the pyloric pressure and to decrease the duodenum and antrum pressures was <0.125 μg./kg.-10 minutes. This compares to an activity for somatostatin itself of 0.125 to 0.25 μg./kg.-10 minutes.

[3] = system: growth hormone secretion; test: inhibition of pentobarbital-stimulated growth hormone release in rats; assay type: in vivo, rat; settings: serum GH 20 minutes after dosing
Description: D-Val^1 -somatostatin also was tested for its activity with respect to the release of growth hormone. The procedure which was employed is carried out using normal male SpragueDawley rats weighing 100-120 grams (Laboratory Supply Company, Indianapolis, Indiana). The test is a modification of the method of P. Brazeau, W. Vale, and R. Guilleman, Endocrinology, 94 184 (1974). In this assay, five groups of eight rats each were employed. Sodium pentobarbital was administered intraperitoneally to all of the rats to stimulate growth hormone secretion. One group served as the control and received only saline. Two of the groups received somatostatin, one at 2 μg./rat, subcutaneously, and the other at 50 μg./rat, subcutaneously. The other two groups received D-Val^1 -somatostatin, one at 2 μg./rat, subcutaneously, and the other at 50 μg./rat, subcutaneously. The serum concentration of growth hormone was measured 20 minutes after simultaneous administration of sodium pentobarbital and test compound. The degree of inhibition of serum growth hormone concentration then was determined with respect to the control group, and the relative activities of D-Val^1 -somatostatin and somatostatin itself were compared.

[4] = system: secretion from the pancreas induced by secretin and cholecystokinin; test: inhibition of pancreatic secretion in dogs with pancreatic and total gastric fistula; assay type: in vivo, dog; settings: three dogs; 0.75 μg/kg-hr. for one hour
Description: In three dogs having both pancreatic and total gastric fistula, secretion from the pancreas was induced by infusion of secretin at 2 units/kg-hr. and cholecystokinin at 0.45 unit/kg-hr., and secretion of gastric HCl by infusion of tetragastrin at 0.5 μg/kg-hr. After a steady response was established, each dog received D-Val^1 -somatostatin for one hour at 0.75 μg/kg-hr. The peak inhibitory effect expressed as percent change over control for total protein was -51%

CC(C)[C@@H](N)C(=O)NCC(=O)N[C@H]1CSSC[C@@H](C(=O)O)NC(=O)[C@H](CO)NC(=O)[C@H]([C@@H](C)O)NC(=O)[C@H](Cc2ccccc2)NC(=O)[C@H]([C@@H](C)O)NC(=O)[C@H](CCCCN)NC(=O)[C@H](Cc2c[nH]c3ccccc23)NC(=O)[C@H](Cc2ccccc2)NC(=O)[C@H](Cc2ccccc2)NC(=O)[C@H](CC(N)=O)NC(=O)[C@H](CCCCN)NC1=O [D-Val^1 -somatostatin] (H-[dV]GCKNFFWKTFTSC-OH; disulfide 3-14)
equivalent dose of somatostatin giving the same effect ([1]; extrapolated against the dose-response curve of somatostatin, analog at 0.75 μg/kg-hr.): 0.935 μg/kg-hr. | activity relative to that of somatostatin ([1]; gastric acid secretion, dogs): 125% | inhibition of steady state acid secretion induced by the C-terminal tetrapeptide of gastrin ([1]; six dogs, infused at 0.75 μg/kg-hr. for one hour, maximal inhibitory effect, ± standard error of mean): 85.1 ± 6.0% | effect on intralumenal pressure [2]: initially increased the intralumenal pressure in the pylorus and then decreased it whereas the pressure in the duodenum and the antrum remained depressed throughout the test | minimum effective dose required to increase the pyloric pressure and to decrease the duodenum and antrum pressures [2]: < 0.125 μg./kg.-10 minutes | inhibition of the increase in growth hormone secretion over control ([3]; 2 μg./rat subcutaneously): 2% | inhibition of the increase in growth hormone secretion over control ([3]; 50 μg./rat subcutaneously): 73% | peak inhibitory effect expressed as percent change over control for total protein [4]: -51%
